The values below come from patent US10071967B2, “N-cycloalkyl-N-{[2-(1-substitutedcycloalkyl)phenyl]methylene}-(thio)carboxamide derivatives” (BAYER CROPSCIENCE AKTIENGESELLSCHAFT, priority 2013, dated 2018).

The subject of one data set is Phakopsora pachyrhizi. As to the kind of experiment: In vivo preventive test on Phakopsora pachyrhizi (soybean rust). As to conditions: for protection: dose of ppm of active ingredient (number not given), comparison with WO-2010/130767, text. As to the method:
Example C: In Vivo Preventive Test on Phakopsora pachyrhizi (Soybean Rust)
Solvent: 24.5 parts by weight of acetone • 24.5 parts by weight of N,N-dimethylacetamide
Emulsifier: 1 part by weight of alkylaryl polyglycol ether
To produce a suitable preparation of active compound, 1 part by weight of active compound is mixed with the stated amounts of solvent and emulsifier, and the concentrate is diluted with water to the desired concentration.
To test for preventive activity, young plants are sprayed with the preparation of active compound at the stated rate of application. After the spray coating has dried on, the plants are inoculated with an aqueous spore suspension of the causal agent of soybean rust (Phakopsora pachyrhizi) and stay for 24 h without light in an incubation cabinet at approximately 24° C. and a relative atmospheric humidity of 95%.
The plants remain in the incubation cabinet at approximately 24° C. and a relative atmospheric humidity of approximately 80% and a day/night interval of 12 h. The test is evaluated 7 days after the inoculation. 0% means an efficacy which corresponds to that of the untreated control, while an efficacy of 100% means that no disease is observed.

For the next data set, the system named is Puccinia recondita. As to the kind of experiment: In vivo preventive test on Puccinia recondita (brown rust on wheat). As to conditions: for Efficacy: Table A1, dose 100 ppm, examples from WO-2012/052490 formulated in DMF with 2% of alkylarylpolyglycolether; for protection: dose of 100 ppm of active ingredient, comparison with WO-2012/052490. As to the method:
Example A: In Vivo Preventive Test on Puccinia recondita (Brown Rust on Wheat) […]
Emulsifier: 1 μL of Tween® 80 per mg of active ingredient
(§1) The active ingredients are made soluble and homogenized in a mixture of Dimethyl sulfoxide/Acetone/Tween® 80 and then diluted in water to the desired concentration.
The young plants of wheat are treated by spraying the active ingredient prepared as described above. Control plants are treated only with an aqueous solution of Acetone/Dimethyl sulfoxide/Tween® 80. After 24 hours, the plants are contaminated by spraying the leaves with an aqueous suspension of Puccinia recondita spores. The contaminated wheat plants are incubated for 24 hours at 20° C. and at 100% relative humidity and then for 10 days at 20° C. and at 70-80% relative humidity.
(§2) The test is evaluated 11 days after the inoculation. 0% means an efficacy which corresponds to that of the control plants while an efficacy of 100% means that no disease is observed.

Another data set relates to Uromyces appendiculatus. Briefly: In vivo preventive test on Uromyces appendiculatus (bean rust). As to conditions: for Efficacy: Table B1, dose 10 ppm. As to the method:
Example B: In Vivo Preventive Test on Uromyces appendiculatus (Bean Rust)
Solvent: 5% by volume of Dimethyl sulfoxide • 10% by volume of Acetone
Emulsifier: […] of Tween® 80 per mg of active ingredient
as §1
The young plants of bean are treated by spraying the active ingredient prepared as described above.
Control plants are treated only with an aqueous solution of Acetone/Dimethyl sulfoxide/Tween® 80.
After 24 hours, the plants are contaminated by spraying the leaves with an aqueous suspension of Uromyces appendiculatus spores. The contaminated bean plants are incubated for 24 hours at 20° C. and at 100% relative humidity and then for 10 days at 20° C. and at 70-80% relative humidity.
as §2

Data set [1] is described as follows: log P by HPLC on a reversed-phase column (C 18), EEC Directive 79/831 Annex V.A8. Format: physicochemical. As to conditions: for logP: 0.1% aqueous formic acid and acetonitrile. As to the method:
In table 1, the log P values were determined in accordance with EEC Directive 79/831 Annex V.A8 by HPLC (High Performance Liquid Chromatography) on a reversed-phase column (C 18), using the method described below: Temperature: 40° C.; Mobile phases: 0.1% aqueous formic acid and acetonitrile; linear gradient from 10% acetonitrile to 90% acetonitrile. Calibration was carried out using unbranched alkan-2-ones (comprising 3 to 16 carbon atoms) with known log P values (determination of the log P values by the retention times using linear interpolation between two successive alkanones). lambda-max-values were determined using UV-spectra from 200 nm to 400 nm and the peak values of the chromatographic signals.

Where [2] appears, read: HPLC, reversed-phase column (C 18), 40° C., linear gradient 10% to 90% acetonitrile.
Where [3] appears, read: HPLC reversed-phase C 18, 40° C., gradient 10% to 90% acetonitrile.
[4] abbreviates: Table 2, compounds of formula (I), HPLC C 18, 40° C.

With `Cn1nc(C(F)F)c(C(=O)N(Cc2cc(Cl)ccc2C2CC2)C2CC2)c1F` [41 from WO-2010/130767, N-(5-chloro-2-cyclopropylbenzyl)-N-cyclopropyl-3-(difluoromethyl)-5-fluoro-1-methyl-1H-pyrazole-4-carboxamide, reference compound], the protection entry with Phakopsora pachyrhizi was “no protection”.

Compound `Cn1nc(C(F)F)c(C(=O)N(Cc2ccccc2C2CC2)C2CC2)c1F` [47 from WO-2010/130767, N-cyclopropyl-N-(2-cyclopropylbenzyl)-3-(difluoromethyl)-5-fluoro-1-methyl-1H-pyrazole-4-carboxamide, reference compound] displayed an Efficacy in the data set with Phakopsora pachyrhizi (Table C1, dose 10 ppm) of 0%.

On to `Cn1nc(C(F)F)c(C(=O)NCc2ccccc2C2CC2)c1F` [65 from WO-2012/052490, N-(2-cyclopropylbenzyl)-3-(difluoromethyl)-5-fluoro-1-methyl-1H-pyrazole-4-carboxamide], for which, in the data set on Puccinia recondita, the Efficacy amounted to 0% and the protection entry is listed as “no protection”.

Take `Cn1nc(C(F)F)c(C(=O)NCc2ccccc2C2CC2)c1Cl` [66 from WO-2012/052490, 5-chloro-N-(2-cyclo-propylbenzyl)-3-(difluoromethyl)-1-methyl-1H-pyrazole-4-carboxamide]: in the data set on Puccinia recondita, the Efficacy was found to be 0% and the protection result is “no protection”.

As for `Cn1nc(C(F)F)c(C(=O)N(Cc2cc(F)ccc2C2CC2)C2CC2)c1F` [123 from WO-2010/130767, N-cyclopropyl-N-(2-cyclopropyl-5-fluorobenzyl)-3-(difluoromethyl)-5-fluoro-1-methyl-1H-pyrazole-4-carboxamide, reference compound], the Efficacy in the data set with Phakopsora pachyrhizi (Table C1, dose 10 ppm) is listed as 0/23.

With `Cc1nn(C)c(F)c1C(=O)N(Cc1ccccc1C1CCCCC1)C1CC1` [399 from WO-2007/087906, N-(2-cyclohexylbenzyl)-N-cyclopropyl-5-fluoro-1,3-dimethyl-1H-pyrazole-4-carboxamide, reference compound], in the data set on Uromyces appendiculatus, the Efficacy was found to be 0%. Further, in the data set with Uromyces appendiculatus (dose of ppm of active ingredient (number not given), comparison with WO-2007/087906, text), the protection result was “no protection”.

`Cc1ccc(C2(CC(C)C)CC2)c(CN(C(=O)c2c(C)nn(C)c2F)C2CC2)c1` [Example 1.144] displayed a logP in data set [1] (setting [2]) of 4.97.

`Cn1cc(C(=O)N(Cc2ccccc2C2(C(F)(F)F)CC2)C2CC2)c(C(F)F)n1` [Example 1.145] registered a logP in data set [1] (setting [2]) of 3.41.

The compound `Cc1cc(C(=O)N(Cc2ccccc2C2(C(F)(F)F)CC2)C2CC2)c(C)o1` [Example 1.146] displayed a logP in data set [1] (setting [2]) of 4.31.

As to `Cn1cc(C(=O)N(Cc2cc(Cl)ccc2C2(C(F)(F)F)CC2)C2CC2)c(C(F)F)n1` [Example 1.147], the logP in data set [1] (setting [2]) was determined as 3.78.

Consider `Cc1cc(C(=O)N(Cc2cc(Cl)ccc2C2(C(F)(F)F)CC2)C2CC2)c(C)o1` [Example 1.148], for which the logP in data set [1] (setting [2]) turned out to be 4.82.

In data set [1] (setting [2]), `Cn1cc(C(=S)N(Cc2cc(Cl)ccc2C2(C(F)(F)F)CC2)C2CC2)c(C(F)F)n1` [Example 1.149] had a logP of 4.23.

Turning to `Cn1cc(C(=O)N(Cc2cc(F)ccc2C2(C(F)(F)F)CC2)C2CC2)c(C(F)F)n1` [Example 1.150], the logP in data set [1] (setting [2]) is listed as 3.48.

In data set [1] (setting [3]), `Cc1cc(C(=O)N(Cc2cc(F)ccc2C2(C(F)(F)F)CC2)C2CC2)c(C)o1` [Example 1.151] displayed a lipophilicity (logP) of 4.44.

`Cn1cc(C(=S)N(Cc2cc(F)ccc2C2(C(F)(F)F)CC2)C2CC2)c(C(F)F)n1` [Example 1.152]: the logP in data set [1] (setting [3]) amounted to 3.94.

Take `Cn1cc(C(=O)N(Cc2cc(F)ccc2C2(C)CC2(Cl)Cl)C2CC2)c(C(F)F)n1` (stereo not shown) [Example 1.153]: the logP in data set [1] (setting [3]) is recorded as 3.68.

The compound `COCC1(c2ccc(C)cc2CN(C(=O)c2cn(C)nc2C(F)F)C2CC2)CC1` [Example 1.154] displayed a logP in data set [1] (setting [3]) of 3.13.

The compound `COCC1(c2ccc(C)cc2CN(C(=O)c2cc(C)oc2C)C2CC2)CC1` [Example 1.155] displayed a logP in data set [1] (setting [3]) of 4.03.

For `COCC1(c2ccc(C)cc2CN(C(=O)c2c(C)nn(C)c2F)C2CC2)CC1` [Example 1.156], in data set [1] (setting [3]), the logP worked out at 3.02.

`COCC1(c2ccc(C)cc2CN(C(=O)c2cn(C)nc2C)C2CC2)CC1` [Example 1.157] returned a logP in data set [1] (setting [3]) of 2.61.

As for `COCC1(c2ccc(C)cc2CN(C(=O)c2c(C)nn(C)c2Cl)C2CC2)CC1` [Example 1.158], the logP in data set [1] (setting [3]) is 3.19.

Regarding `Cc1cc(C(=O)N(Cc2cc(Cl)c(Cl)cc2C2(C)CC2)C2CC2)c(C)o1` [Example 1.159], the logP in data set [1] (setting [3]) was determined as 5.43.

In data set [1] (setting [3]), `Cc1nn(C)cc1C(=O)N(Cc1cc(Cl)c(Cl)cc1C1(C)CC1)C1CC1` [Example 1.160] registered a logP of 3.81.

The compound `Cc1nn(C)c(Cl)c1C(=O)N(Cc1cc(Cl)c(Cl)cc1C1(C)CC1)C1CC1` [Example 1.161] had a logP in data set [1] (setting [3]) of 4.61.

Compound `Cc1nn(C)c(F)c1C(=O)N(Cc1cc(Cl)c(Cl)cc1C1(C)CC1)C1CC1` [Example 1.162] came in with a logP in data set [1] (setting [3]) of 4.35.

For the compound `Cn1cc(C(=O)N(Cc2cc(Cl)c(Cl)cc2C2(C)CC2)C2CC2)c(C(F)F)n1` [Example 1.163], the logP in data set [1] (setting [3]) was determined as 4.28.

Regarding `Cn1cc(C(=O)N(Cc2cc(Cl)ccc2C2(C)CC2)C2CC2)c(C(F)F)n1` [I.029, N-[5-chloro-2-(1-methylcyclopropyl)benzyl]-N-cyclopropyl-3-(difluoromethyl)-1-methyl-1H-pyrazole-4-carboxamide], in the data set on Uromyces appendiculatus, the Efficacy worked out at 98%.

Turning to `Cc1ccc(C2(C)CC2)c(CN(C(=O)c2cn(C)nc2C(F)F)C2CC2)c1` [I.033], the logP in data set [1] (setting [2]) was 3.74. Further, in the data set on Uromyces appendiculatus, the Efficacy was determined as 100%.

On to `Cc1ccc(C2(C)CC2)c(CN(C(=O)c2c(C)nn(C)c2F)C2CC2)c1` [I.040], for which the Efficacy in the data set on Phakopsora pachyrhizi (Table C1, dose 10 ppm) amounted to 99%.

Consider `CCC1(c2ccccc2CN(C(=O)c2cn(C)nc2C(F)F)C2CC2)CC1` [I.067], for which, in the data set with Puccinia recondita, the Efficacy was 98% and the protection entry is reported as “at least 98%”.

In turn, `CCC1(c2ccc(Cl)cc2CN(C(=O)c2c(C)nn(C)c2F)C2CC2)CC1` [I.087] returned an Efficacy with Phakopsora pachyrhizi (Table C2, dose 10 ppm) of 79%. The protection result with Phakopsora pachyrhizi is on record as “at least 70%”.

As for `CCCC1(c2ccc(C)cc2CN(C(=O)c2c(C)nn(C)c2F)C2CC2)CC1` [I.113], the logP in data set [1] (setting [2]) worked out at 4.61. In the data set on Phakopsora pachyrhizi (Table C1, dose 10 ppm), this compound registered an Efficacy of 85%.

In data set [1] (reversed-phase C18 HPLC column, given in the preparation examples), `Cn1cc(C(=O)N(Cc2cc(F)ccc2C2(C(F)F)CC2)C2CC2)c(C(F)F)n1` [I.137, N-cyclopropyl-3-(difluoromethyl)-N-{2-[1-(difluoromethyl)cyclopropyl]-5-fluorobenzyl}-1-methyl-1H-pyrazole-4-carboxamide] displayed a chromatographic logP of 3.09.

The compound `Cn1cc(C(=O)N(Cc2cccc3c2C2(CC3)CC2)C2CC2)c(C(F)F)n1` [Ia.01] had a logP in data set [1] (setting [4]) of 3.51.

As for `Cn1cc(C(=O)N(Cc2cccc3c2C2(CCC3)CC2)C2CC2)c(C(F)F)n1` [Ia.02], the logP in data set [1] (setting [4]) came to 3.73.

In data set [1] (setting [4]), `Cn1cc(C(=S)N(Cc2cccc3c2C2(CCC3)CC2)C2CC2)c(C(F)F)n1` [Ia.03] showed a logP of 4.37.
